In patent US20170209579A1, “NON-INVASIVE RADIOFREQUENCY FIELD TREATMENT FOR CANCER THERAPY” (Baylor College of Medicine, priority 2014, published 2017):

Tested on: γ-H2AX foci in Hep3B cells
Test: γ-H2AX foci in Hep3B cells (immunocytochemistry, confocal)
Assay type: cell-based, human
Experimental: Approximately 50,000 cells were seeded in each well of a 12-well plate and grown on circular #1.5 cover slips (Electron Microscopy Sciences, Hatfield, Pa.). After 24 hours, cells were exposed to various treatment conditions as described herein. At the end of treatment, cells were fixed, permeabilized, blocked, labeled with primary antibody, and then with secondary antibody in consecutive steps. For confocal imaging, Fluoview—FV1000 Olympus Confocal Microscope (Center Valley, Pa.) was used.
For immunocytochemistry assay, an indirect immunofluorescence approach was used. Circular #1.5 cover slips (Electron microscopy sciences, Hatfield, Pa.) were placed in 12-well plates and sterilized using a 20-minute UV exposure. Cells from an exponentially growing culture were counted and approximately 50,000 cells were seeded in each well of a 12-well plate. Adherent sub-confluent monolayers were observed growing on the cover slip 24 hours later. At this point, cells were exposed to various treatment conditions as described herein. At the end of treatment, immunolabeling of proteins being studied was performed. Cells were fixed, permeablized, blocked, labeled with primary antibody and then with secondary antibody in consecutive steps. Between each step, cells were washed with PBS three times for 5 minutes each time on a leveled shaker at 50 RPM. Cells were fixed with 1% paraformaldehyde in PBS (w/v) for 30 minutes. Permeablization was performed using 0.3% (v/v) Triton-100 and 0.125% (w/v) CHAPS (3-[(3-Cholamidopropyl) dimethylammonio]-1-propanesulfonate) dissolved in PBS for 15 minutes. […] Primary and secondary antibodies were diluted in the blocking buffer. Incubation with primary antibody was performed over night at 4° C. Secondary antibody incubations were performed for 2 hours at room temperature. […]
The slides were sealed with a conventional nail polish hardener and stored at 4° C. until imaging. […] Exposure settings were set to maximize dynamic range initially and then kept constant across multiple samples to allow quantitative comparisons. […]

Nc1ccn([C@@H]2O[C@H](CO)[C@@H](O)C2(F)F)c(=O)n1 [gemcitabine, 2′,2′-difluoro 2′-deoxycytidine]
persistence of γ-H2AX positive cells, gemcitabine and hyperthermia versus either alone (gemcitabine 100 nM 24 hours, last two hours 42.5° C.): persisted for a longer duration
relative mean (±SD) γ-H2AX pixels per cell (gemcitabine alone): 1.0±0.26
relative mean (±SD) γ-H2AX pixels per cell (hyperthermia immediately followed by gemcitabine): 1.0±0.20
